Data as given in US20250059205A1, “Heterocyclic Compounds and Methods of Use” (AMGEN INC., priority 2021, published 2025).
Like-named read-outs stand apart in the source and are kept apart here.

Legend:
[1] = biological target: GDP-bound KRAS protein (aa 1-169), containing both G12D and C118A amino acid substitutions (Homo sapiens, UniProt P01116, C118A/G12D); assay: KRAS G12D Coupled Nucleotide Exchange Assay; assay type: biochemical; settings: 2 h compound pre-incubation
Experimental: Following compound pre-incubation, purified SOS protein (aa 564-1049) and GTP (Roche 10106399001) were added to the assay wells and incubated for an additional 30 min. […] The assay plates were then read on a PerkinElmer EnVision Multilabel Reader, using AlphaScreen® technology, and data were analyzed using a 4-parameter logistic model to calculate IC50 values.

[2] = tested on: Phosphorylation of ERK1/2 in AsPC-1 cells; assay: Phospho-ERK1/2 MSD Assay (AsPC-1 cells); assay type: cell-based; settings: Homo sapiens, read-out: p-ERK (AsPC-1 cells) IC50
In short: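 Read-out: MSD electrochemiluminescent detection of phosphorylated ERK1/2 in whole-cell lysates, fitted to a 4-parameter logistic curve for IC50. Prior to lysis, AsPC-1 cells (25,000 per well) received a 2 h compound dose-response at 37 °C.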

[3] = biological target: His-tagged KRAS G12D protein (Homo sapiens, UniProt P01116, G12D); assay: KRAS G12D TR-FRET Assay; assay type: binding
[4] = tested on: Phosphorylation of ERK1/2 in A-427 cells; assay: Phospho-ERK1/2 MSD Assay (A-427 cells); assay type: cell-based; settings: Homo sapiens, 2 h treatment, read-out: p-ERK (A427 cells) IC50
In short: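 ERK1/2 phosphorylation measured by Meso Scale whole-cell lysate assay after A-427 cells were exposed to a titration of compound for 2 h at 37 °C.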

Sequence of GDP-bound KRAS protein (aa 1-169), containing both G12D and C118A amino acid substitutions (P01116 1-169 isoform P01116-2 G12D/C118A): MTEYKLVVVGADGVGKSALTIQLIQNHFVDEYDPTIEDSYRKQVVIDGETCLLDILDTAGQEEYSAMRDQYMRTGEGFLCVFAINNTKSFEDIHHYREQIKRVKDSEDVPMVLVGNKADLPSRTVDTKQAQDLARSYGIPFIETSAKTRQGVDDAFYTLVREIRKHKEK
Sequence of His-tagged KRAS G12D protein (P01116 1-188 isoform P01116-2 G12D): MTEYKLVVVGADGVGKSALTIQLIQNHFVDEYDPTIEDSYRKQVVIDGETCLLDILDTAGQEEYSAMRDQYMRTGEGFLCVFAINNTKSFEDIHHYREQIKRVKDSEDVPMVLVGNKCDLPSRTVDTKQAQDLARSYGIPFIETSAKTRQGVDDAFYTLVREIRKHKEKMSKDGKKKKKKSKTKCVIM

| SMILES | Avg 2 h Coupled Exchange IC50 [1] [nM] | IC50 ([2]; ASPC1, 2 h, 2 hours treatment) [nM] | IC50 [3] [nM] | IC50 ([4]; A-427, 2 h) [nM] | IC50 ([2]; ASPC1, 2 hours treatment) [nM] | IC50 [4] [nM] |
| --- | --- | --- | --- | --- | --- | --- |
| Cc1c(-c2cc(O)cc3cccc(Cl)c23)ccc2c(N3[C@@H]4CC[C@H]3CNC4)nc(OC[C@@]34CCCN3C[C@H](F)C4)nc12 [Example 98, 4-(4-((1R,5S)-3,8-diazabicyclo[3.2. 1]octan-8-yl)-2-(((2R,7aS)-2-fluorotetrahydro-1H-pyrrolizin-7a(5H)-yl)methoxy)-8-methylquinazolin-7-yl)-5-chloronaphthalen-2-ol] | 13 | 1050 | 13 | 587 |  |  |
| C#Cc1cccc2cc(O)cc(-c3ccc4c(N5[C@@H]6CC[C@H]5CNC6)nc(OC[C@@]56CCCN5C[C@H](F)C6)nc4c3F)c12 [Example 99, 4-(4-((1R,5S)-3,8-Diazabicyclo[3.2.1]octan-8-yl)-8-fluoro-2-(((2R,7aS)-2-fluorotetrahydro-1H-pyrrolizin-7a(5H)-yl)methoxy)quinazolin-7-yl)-5-ethynylnaphthalen-2-ol] | 3 | 19 | 3 | 5 |  |  |
| C#Cc1cccc2cccc(-c3c(F)cc4c(N5[C@@H]6CC[C@H]5CNC6)nc(OC[C@@]56CCCN5C[C@H](F)C6)nc4c3F)c12 [Example 100, 4-((1R,5S)-3,8-Diazabicyclo[3.2.1]octan-8-yl)-7-(8-ethynylnaphthalen-1-yl)-6,8-difluoro-2-(((2R,7aS)-2-fluorotetrahydro-1H-pyrrolizin-7a(5H)-yl)methoxy)quinazoline] | 6 | 663 | 8 | 945 |  |  |
| Fc1cc2c(N3[C@@H]4CC[C@H]3CNC4)nc(OC[C@@]34CCCN3C[C@H](F)C4)nc2c(F)c1-c1cncc2cccc(Cl)c12 [Example 101, 4-((1R,5S)-3,8-Diazabicyclo[3.2.1]octan-8-yl)-7-(5-chloroisoquinolin-4-yl)-6,8-difluoro-2-(((2R,7aS)-2-fluorotetrahydro-1H-pyrrolizin-7a(5H)-yl)methoxy)quinazoline] | 35 |  | 70 |  | 1710 | 2920 |
| CCc1cccc2cc(O)cc(-c3c(F)cc4c(N5C[C@@H]6CC[C@H]5CN6)nc(OC[C@@]56CCCN5C[C@H](F)C6)nc4c3F)c12 [Example 109, 4-(4-((1S,4S)-2,5-Diazabicyclo[2.2.2]octan-2-yl)-6,8-difluoro-2-(((2R,7aS)-2-fluorotetrahydro-1H-pyrrolizin-7a(5H)-yl)methoxy)quinazolin-7-yl)-5-ethylnaphthalen-2-ol] | 3 | 29 | 4 | 17 |  |  |
| CCc1cccc2cc(O)cc(-c3ccc4c(N5C[C@@H]6CC[C@H]5CN6)nc(OC[C@@]56CCCN5C[C@H](F)C6)nc4c3F)c12 [Example 110, 4-(4-((1S,4S)-2,5-diazabicyclo[2.2.2]octan-2-yl)-8-fluoro-2-(((2R,7aS)-2-fluorotetrahydro-1H-pyrrolizin-7a(5H)-yl)methoxy)quinazolin-7-yl)-5-ethylnaphthalen-2-ol] | 3 | 26 | 4 | 10 |  |  |
| CCc1c(F)ccc2cc(O)cc(-c3ccc4c(N5CC6CCC(C5)N6)nc(OC[C@@]56CCCN5C[C@H](F)C6)nc4c3)c12 [Example 111] | 1 | 51 | 2 | 28 |  |  |
| CCc1c(F)ccc2cc(O)cc(-c3ccc4c(N5C[C@@H]6CC[C@H]5CN6)nc(OC[C@@]56CCCN5C[C@H](F)C6)nc4c3)c12 [Example 112, 4-(4-((1S,4S)-2,5-diazabicyclo[2.2.2]octan-2-yl)-2-(((2R,7aS)-2-fluorotetrahydro-1H-pyrrolizin-7a(5H)-yl)methoxy)quinazolin-7-yl)-5-ethyl-6-fluoronaphthalen-2-ol] | 2 | 90 | 2 | 37 |  |  |
| Oc1cc(-c2ccc3c(N4C[C@@H]5CC[C@H]4CN5)nc(OC[C@@]45CCCN4C[C@H](F)C5)nc3c2)c2c(F)c(F)ccc2c1 [Example 113, 4-(4-((1S,4S)-2,5-diazabicyclo[2.2.2]octan-2-yl)-2-(((2R,7aS)-2-fluorotetrahydro-1H-pyrrolizin-7a(5H)-yl)methoxy)quinazolin-7-yl)-5,6-difluoronaphthalen-2-ol] | 2 | 453 | 3 | 102 |  |  |
| Nc1ccc(C2CC2)c(-c2c(F)cc3c(N4C[C@H]5CC[C@@H](C4)N5)nc(OC[C@@]45CCCN4C[C@H](F)C5)nc3c2F)c1 [Example 114, 3-(4-((1R,5S)-3,8-diazabicyclo[3.2.1]octan-3-yl)-6,8-difluoro-2-(((2R,7aS)-2-fluorotetrahydro-1H-pyrrolizin-7a(5H)-yl)methoxy)quinazolin-7-yl)-4-cyclopropylaniline] | 4 | 1420 | 16 | 985 |  |  |
| Nc1ccc(C2CC2)c(-c2c(F)cc3c(N4C[C@@H]5CC[C@H]4CN5)nc(OC[C@@]45CCCN4C[C@H](F)C5)nc3c2F)c1 [Example 115, 3-(4-((1S,4S)-2,5-diazabicyclo[2.2.2]octan-2-yl)-6,8-difluoro-2-(((2R,7aS)-2-fluorotetrahydro-1H-pyrrolizin-7a(5H)-yl)methoxy)quinazolin-7-yl)-4-cyclopropylaniline] | 23 | 2790 | 32 | 2740 |  |  |
| Nc1cc(-c2c(F)cc3c(N4C[C@H]5CC[C@@H](C4)N5)nc(OC[C@@]45CCCN4C[C@H](F)C5)nc3c2F)c2ccccc2c1 [Example 116, 4-(4-((1R,5S)-3,8-diazabicyclo[3.2.1]octan-3-yl)-6,8-difluoro-2-(((2R,7aS)-2-fluorotetrahydro-1H-pyrrolizin-7a(5H)-yl)methoxy)quinazolin-7-yl)naphthalen-2-amine] | 5 | 454 | 30 | 254 |  |  |
| Nc1cc(-c2c(F)cc3c(N4C[C@@H]5CC[C@H]4CN5)nc(OC[C@@]45CCCN4C[C@H](F)C5)nc3c2F)c2ccccc2c1 [Example 117, 4-(4-((1S,4S)-2,5-diazabicyclo[2.2.2]octan-2-yl)-6,8-difluoro-2-(((2R,7aS)-2-fluorotetrahydro-1H-pyrrolizin-7a(5H)-yl)methoxy)quinazolin-7-yl)naphthalen-2-amine] | 7 | 899 | 13 | 411 |  |  |
| Nc1cc(F)c(F)c(-c2c(F)cc3c(N4CC5CCC(C4)N5)nc(OC[C@@]45CCCN4C[C@H](F)C5)nc3c2F)c1 [Example 118] | 39 | 4950 | 140 | 6780 |  |  |
| CCc1c(F)ccc2cc(O)cc(-c3c(F)cc4c(N5C[C@H]6CCC[C@@H](C5)N6)nc(OC[C@@]56CCCN5C[C@H](F)C6)nc4c3F)c12 [Example 119, 4-(4-((1R,5S)-3,9-diazabicyclo[3.3.1]nonan-3-yl)-6,8-difluoro-2-(((2R,7aS)-2-fluorotetrahydro-1H-pyrrolizin-7a(5H)-yl)methoxy)quinazolin-7-yl)-5-ethyl-6-fluoronaphthalen-2-ol] | 4 | 276 | 5 | 156 |  |  |
| Oc1cc(-c2c(F)cc3c(N4C[C@H]5CCC[C@@H](C4)N5)nc(OC[C@@]45CCCN4C[C@H](F)C5)nc3c2F)c2ccccc2c1 [Example 120, 4-(4-((1R,5S)-3,9-diazabicyclo[3.3.1]nonan-3-yl)-6,8-difluoro-2-(((2R,7aS)-2-fluorotetrahydro-1H-pyrrolizin-7a(5H)-yl)methoxy)quinazolin-7-yl)naphthalen-2-ol] | 4 | 1170 | 8 | 1160 |  |  |
| CCc1c(F)ccc2cc(O)cc(-c3c(F)cc4c(N5C[C@H]6C[C@@H](C5)N6)nc(OC[C@@]56CCCN5C[C@H](F)C6)nc4c3F)c12 [Example 121, 4-(4-((1R,5S)-3,6-diazabicyclo[3.1.1]heptan-3-yl)-6,8-difluoro-2-(((2R,7aS)-2-fluorotetrahydro-1H-pyrrolizin-7a(5H)-yl)methoxy)quinazolin-7-yl)-5-ethyl-6-fluoronaphthalen-2-ol] | 8 | 2850 | 26 | 5530 |  |  |
| Oc1ccc(-c2c(F)cc3c(N4C[C@H]5CC[C@@H](C4)N5)nc(OC[C@@]45CCCN4C[C@H](F)C5)nc3c2F)c2ccccc12 [Example 122, 4-(4-((1R,5S)-3,8-diazabicyclo[3.2.1]octan-3-yl)-6,8-difluoro-2-(((2R,7aS)-2-fluorotetrahydro-1H-pyrrolizin-7a(5H)-yl)methoxy)quinazolin-7-yl)naphthalen-1-ol] | 5 | 282 | 5 | 167 |  |  |
